{"source": "patent US20070213297A1", "about": "“Arrays with cleavable linkers” (priority 2004, published 2007)", "key": {"[1]": {"tested_on": "β3GlcNAcT", "test": "β3GlcNAcT acceptor specificity", "type": "biochemical, N. meningitidis", "details": "as acceptor substrate; lactose (4) = 100%", "method": "Both enzymes, β4GalT-GalE and β3GlcNAcT, were over expressed in E. coli AD202 in a large-scale fermentor (100 L). Bacteria were cultured in 2YT medium and induced with iso-propyl-thiogalactopyranoside (IPTG) to ultimately produce 8-10 g of bacterial cell paste/L cell media. The enzymes were then released from the cells by a microfluidizer and were solubilized in Tris buffer (25 mM, pH 7.5) containing manganese chloride (10 mM) and Triton X (0.25%) to reach enzymatic activities of about 50 U/L and 115 U/L of cell culture β4GalT-GalE and β3GlcNAcT, respectively.\nThe structures of these disaccharides are provided below. [drawing 17]\nAdding the hydrophobic para-nitrophenyl ring as an aglycon to the reducing end of the acceptors enhanced the activity of the enzyme up to 10 fold (compare 4 with 5 and 6 with 7). The increase in the enzyme activity by adding a hydrophobic aglycon to the acceptor sugar, though to the lesser extent, has also been shown for β4GalT (compare 12 with 13, 14). The relaxed substrate specificity of these enzymes makes them very useful for preparative synthesis of various carbohydrate structures, including poly-N-acetyllactosamines."}, "[2]": {"biological_target": "T1, chicken ST6GalNAc-I (Gallus gallus, UniProt Q92183)", "T1 construct": "made in house; host or cells: insect cells", "T1 sequence (Q92183 whole entry)": "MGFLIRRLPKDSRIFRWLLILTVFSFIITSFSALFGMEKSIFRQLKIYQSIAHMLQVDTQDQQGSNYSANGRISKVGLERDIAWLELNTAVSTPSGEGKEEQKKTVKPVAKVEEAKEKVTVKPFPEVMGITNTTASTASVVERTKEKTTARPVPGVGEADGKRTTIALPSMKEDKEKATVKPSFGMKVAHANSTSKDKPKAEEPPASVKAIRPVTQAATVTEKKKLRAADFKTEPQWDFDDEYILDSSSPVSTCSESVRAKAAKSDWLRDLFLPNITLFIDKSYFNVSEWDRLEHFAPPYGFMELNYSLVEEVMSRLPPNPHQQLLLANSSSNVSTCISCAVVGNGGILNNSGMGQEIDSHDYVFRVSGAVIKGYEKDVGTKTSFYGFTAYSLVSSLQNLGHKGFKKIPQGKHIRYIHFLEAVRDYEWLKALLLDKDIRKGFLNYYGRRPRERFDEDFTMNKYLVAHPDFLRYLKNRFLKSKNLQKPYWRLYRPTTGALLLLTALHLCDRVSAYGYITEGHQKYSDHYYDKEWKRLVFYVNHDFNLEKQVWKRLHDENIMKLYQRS", "test": "chST6GalNAc-I activity on small acceptor molecules", "type": "biochemical", "details": "α-D-galacto derivatives as acceptors", "text": "The inventors have previously reported the cloning, expression, and characterization of chicken ST6GalNAc-I and its use in preparative synthesis of the O-linked sialoside antigens, STn-, α(2-6)SiaT-, α(2-3)SiaT- and Di-SiaT-antigen. Blixt, O.; Allin, K.; Pereira, L.; Datta, A. and Paulson, J. C., J. Am. Chem. Soc. 2002, 124, 5739-5746. Briefly, the recombinant enzyme was expressed in insect cells and purified by CDP-sepharose affinity chromatography to generate approximately 10 U/L of cell culture."}, "[3]": {"tested_on": "2G12 anti-HIV antibody", "test": "2G12 binding to glycan array printed on glass slide", "design": "species or system human", "details": "for Rel. spec. (relative binding activity of 2G12): glass slide glycan array, 2G12 pre-complexed with anti-IgG-FITC; for 2G12 binding on glycan array (in words): initial experiments", "method": "Construction of a glycan array printed on a glass slide: The library of carbohydrate structures was obtained through chemical and chemo-enzymatic synthesis as described above, as well as natural sources. This compound library contained a N-hydroxy succinimide (NHS)-reactive primary amino group, which was printed on a commercial NHS-activated glass surface (Accelr8 Technology Corporation, Denver, Colo.) using a microarray gene printer (TSRI).\nEach glycan type was printed (≈0.5 nL/spot) at various concentrations (10-100 μM) and each concentration in a replicate of six. Slides were further incubated with ethanolamine buffer to deactivate remaining NHS functional groups.\nThe 2G12 antibody was pre-complexed (for 10 min) with secondary human anti-IgG-FITC (2:1, 20 μg/mL) prior to application to the glycan array. After incubation with the 2G12 antibodies, the array washed by dipping the slide in buffer and water."}, "[4]": {"tested_on": "2G12 antibody", "test": "Carbohydrate microarray analysis of oligomannose-2G12 binding (microtiter plate)", "design": "species or system human", "method": "Carbohydrate microarray analysis. Ninety-six well NHS-coated microtiter plates (NoAb Biodiscoveries) were treated with 200 μL of a 1 mM methanolic solution of the amino-functionalized disulfide and alkyne containing linker (scheme V) containing 5% diisopropylethylamine (DIEA) and incubated overnight at 4° C. The microtiter plate was then washed with 2×200 μL methanol and 2×200 μL water. Next, 200 μL solutions of azido-functionalized oligomannose derivatives 21-25 at varying concentrations from 0 to 500 μM in 5% DIEA/methanol were introduced. A sprinkle of copper (I) iodide was added and the contents were allowed to react overnight at 4° C. The next day, the contents were removed and the plates were washed with 2×200 μL methanol and 2×200 μL water. The plates were then blocked with 0.1% Tween20 solution in HEPES buffer pH 7.5 at 4° C. for 1 hour and then washed with 3×200 μL HEPES buffer. […] Detection of the FITC-tagged secondary antibody was performed in 200 μL water using a fluorescence plate reader. […]\nCarbohydrate Microarray Analysis. […] Kd values for the interaction of 2G12 with oligomannoses 4, 5, 7, 8, 9 (Table 9) were determined using a microtiter-based assay with detection via a fluorescent secondary antibody (see Bryan et al. (2004) J. Am. Chem. Soc. 126, 8640-41)."}, "[5]": {"tested_on": "2G12 antibody", "test": "2G12 binding, cleavable linker glycan array in microtiter plates", "design": "species or system human", "method": "Cleavable Linker Glycan Array in Microtiter Plates: Further experiments were performed using glycans immobilized within microtiter wells with the cleavable triazole linkers described in Example 7 as shown in FIG. 11.\n2G12 Binding: After washing with QH2O, wells were blocked with 10 mM HEPES buffer, pH 7.5/150 mM NaCl buffer (200 μL) containing 0.1% Tween-20 over 1 h at 4° C. The buffer was then removed and 2G12 (17 μg/mL PBS buffer; 200 μL) was incubated in the well over 1 h at 4° C. Wells were then washed with PBS buffer (3×; 200 μL) and fluorescein-conjugated Goat Anti-Human IgG antibody (14 μg/mL PBS buffer; 200 μL) was incubated in the well over 1 h in the dark at 4° C. Wells were then washed with PBS buffer (3×; 200 μL) and fluorescence was measured with an excitation wavelength of 485 nm and emission wavelength of 535 nm.\nFurther studies were performed using a cleavable linker array to clarify the types of mannose-containing glycans bound by the 2G12 anti-HIV antibodies. […] The results of a binding study using increasing amounts of labeled Manα1,2Manα1,3Manα1,2 Manα1,6Man glycan with a constant amount of 2G12 antibody are shown in FIG. 16."}}, "note": "Marks after values point to notes of the source that are not given here.", "data": [{"molecule": "OCC1O[C@@H](O)C(O)[C@@H](O)[C@@H]1O[C@@H]1OC(CO)[C@H](O)[C@H](O)C1O", "note": "(stereo partly shown) [Compound 4]", "values": [{"measurement": "Relative enzyme activity (%) β(1-3)GlcNAcT-activity", "setting": "[1]", "value": 100, "unit": "%"}, {"measurement": "chST6GalNAc-I activity, nmol/mg x min^−1", "setting": "[2]", "value": 2.90, "unit": "nmol/mg x min^−1"}, {"measurement": "Rel. spec. (relative binding activity of 2G12)", "setting": "[3]", "value": "− (- = <1000)"}]}, {"molecule": "O=[N+]([O-])c1ccc(O[C@@H]2OC(CO)[C@@H](O[C@@H]3OC(CO)[C@H](O)[C@H](O)C3O)[C@H](O)C2O)cc1", "note": "(stereo partly shown) [Compound 5]", "values": [{"measurement": "chST6GalNAc-I activity, nmol/mg x min^−1", "setting": "[2]", "value": 1.30, "unit": "nmol/mg x min^−1"}, {"measurement": "Rel. spec. (relative binding activity of 2G12)", "setting": "[3]", "value": "− (- = <1000)"}]}, {"molecule": "CC(=O)N[C@H]1C(O)O[C@H](CO)[C@@H](O[C@@H]2O[C@H](CO)[C@H](O)[C@H](O)[C@H]2O)[C@@H]1O", "note": "(stereo partly shown) [Compound 6]", "values": [{"measurement": "Relative enzyme activity (%) β(1-3)GlcNAcT-activity", "setting": "[1]", "value": 7, "unit": "%"}, {"measurement": "chST6GalNAc-I activity, nmol/mg x min^−1", "setting": "[2]", "value": "12.50* nmol/mg x min^−1"}, {"measurement": "Rel. spec. (relative binding activity of 2G12)", "setting": "[3]", "value": "− (- = <1000)"}]}, {"molecule": "CC(=O)N[C@@H]1[C@@H](O)[C@@H](O)[C@@H](CO)O[C@@H]1O", "note": "[D-GaINAc, reference compound]", "values": [{"measurement": "chST6GalNAc-I activity, cpm", "setting": "[2]", "value": 0, "unit": "cpm"}, {"measurement": "chST6GalNAc-I activity, nmol/mg x min^−1", "setting": "[2]", "value": 0.00, "unit": "nmol/mg x min^−1"}]}, {"molecule": "NCCCCCO[C@H]1O[C@H](CO[C@H]2O[C@H](CO)[C@@H](O)[C@H](O)[C@@H]2O[C@H]2O[C@H](CO)[C@@H](O)[C@H](O)[C@@H]2O)[C@@H](O)[C@H](O[C@H]2O[C@H](CO)[C@@H](O)[C@H](O)[C@@H]2O[C@H]2O[C@H](CO)[C@@H](O)[C@H](O)[C@@H]2O)[C@@H]1O", "note": "[Oligomannose 5]", "values": [{"measurement": "2G12 affinity ranking (in words)", "setting": "[4]", "value": "greatest affinity"}]}, {"molecule": "Man-8#aa Man8-aminoacid [Glycan 144]", "values": [{"measurement": "2G12 binding on glycan array (in words)", "setting": "[3]", "value": "Binding was observed"}]}, {"molecule": "Man-9#aa Man9-aminoacid [Glycan 145]", "values": [{"measurement": "2G12 binding on glycan array (in words)", "setting": "[3]", "value": "smaller level of binding"}]}, {"molecule": "Manα1,2 Manα1,2 Manα1,3Man", "values": [{"measurement": "2G12 epitope/affinity (in words)", "setting": "[5]", "value": "optimal epitope(s) with micromolar affinity to 2G12"}, {"measurement": "Kd", "setting": "[5]", "value": 100, "unit": "nM"}]}, {"molecule": "Manα1,2Manα1,3Manα1,2 Manα1,6Man", "values": [{"measurement": "2G12 epitope/affinity (in words)", "setting": "[5]", "value": "optimal epitope(s) with micromolar affinity to 2G12"}]}]}
